Measurements reported in US11242337B2, “Compounds useful for treating gastrointestinal tract disorders” (Ardelyx, Inc., priority 2017, dated 2022).

Molecular target: T1, NHE3 (Homo sapiens, UniProt P48764)
T1 construct: expressed in transfected cells
T1 sequence (P48764 26-834): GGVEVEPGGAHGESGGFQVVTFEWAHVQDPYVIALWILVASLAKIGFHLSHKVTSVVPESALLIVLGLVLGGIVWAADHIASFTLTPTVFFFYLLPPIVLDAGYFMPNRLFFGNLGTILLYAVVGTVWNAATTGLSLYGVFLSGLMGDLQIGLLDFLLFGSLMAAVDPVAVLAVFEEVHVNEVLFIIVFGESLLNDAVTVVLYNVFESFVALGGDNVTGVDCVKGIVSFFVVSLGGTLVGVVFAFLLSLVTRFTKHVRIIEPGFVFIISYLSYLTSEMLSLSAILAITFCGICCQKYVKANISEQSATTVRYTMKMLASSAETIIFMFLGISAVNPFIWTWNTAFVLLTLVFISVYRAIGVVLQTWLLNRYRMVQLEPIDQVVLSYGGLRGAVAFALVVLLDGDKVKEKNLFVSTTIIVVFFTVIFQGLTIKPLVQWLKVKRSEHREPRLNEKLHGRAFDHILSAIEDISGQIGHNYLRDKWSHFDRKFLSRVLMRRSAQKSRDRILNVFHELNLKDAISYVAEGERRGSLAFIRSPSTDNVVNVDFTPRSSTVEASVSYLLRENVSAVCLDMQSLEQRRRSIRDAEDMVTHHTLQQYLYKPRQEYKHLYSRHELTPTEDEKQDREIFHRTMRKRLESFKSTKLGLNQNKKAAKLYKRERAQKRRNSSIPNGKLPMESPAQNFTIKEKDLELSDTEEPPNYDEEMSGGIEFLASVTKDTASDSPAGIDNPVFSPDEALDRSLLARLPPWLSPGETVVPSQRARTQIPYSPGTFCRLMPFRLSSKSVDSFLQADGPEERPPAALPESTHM
T1 sequence (Q99653 2-195 partner limits assumed): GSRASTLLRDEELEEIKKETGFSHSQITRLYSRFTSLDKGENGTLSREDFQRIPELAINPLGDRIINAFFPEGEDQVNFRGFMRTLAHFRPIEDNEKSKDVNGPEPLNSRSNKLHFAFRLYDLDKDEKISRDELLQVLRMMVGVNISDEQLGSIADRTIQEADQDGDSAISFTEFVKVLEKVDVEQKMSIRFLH
Assay: Cell-based assay of NHE-3 activity (persistent inhibition), human
Conditions: human Persistence, 60 min incubation then washout
Method in brief: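 Persistent inhibition: compound (0-30 μM, 60 min, RT, NaCl-HEPES pH 7.4) removed before assay. Human NHE3/NHERF2 PS120 cells were then BCECF-loaded during NH4Cl pulse (30 min, 37 °C), acidified in Na+-free buffer, and Na+ added 10 min after washout; antiport measured as initial fluorescence-ratio change per minute.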

- % inhibition: C (>70%)
- pIC50: C (NHE3 pIC50 > 7)
SMILES: Cc1cc(Cl)cc2c1C[C@H](N1CCNCC1)[C@H]2Oc1ccc(S(=O)(=O)NCCOCCOCCNC(=O)NCCCCNC(=O)NCCOCCOCCNS(=O)(=O)c2ccc(O[C@H]3c4cc(Cl)cc(C)c4C[C@@H]3N3CCNCC3)c(F)c2)cc1F [Example 36, 3-[2-(2-[2-[(4-[[(1S,2S)-6-Chloro-4-methyl-2-(piperazin-1-yl)-2,3-dihydro-1H-inden-1-yl]oxy]-3-fluorobenzene)sulfonamido]ethoxy]ethoxy)ethyl]-1-[4-([[2-(2-[2-[(4-[[(1S,2S)-6-chloro-4-methyl-2-(piperazin-1-yl)-2,3-dihydro-1H-inden-1-yl]oxy]-3-fluorobenzene)sulfonamido]ethoxy]ethoxy)ethyl]carbamoyl]amino)butyl]urea; bis(trifluoroacetic acid)]
